In patent publication US5814627A, “3, 5-disubstituted and 3, 4, 5-trisubstituted 2-isoxazolines and isoxazoles, process for their preparation and their use as pharmaceuticals” (Hoechst Aktienegesellschaft, priority 1994, dated 1998):
Like-named read-outs stand apart in the source and are kept apart here.

Legend:
[1] = test system: TNFα release from mononuclear cells; assay: Test 4: cytokine release from LPS-stimulated mononuclear cells, TNFα; type: cell-based; conditions: Homo sapiens, read-out: Test 4 residual activity (TNFα release), percent of control
Experimental: (§1) Test 4. Stimulation of the cytokine release
(§2) Isolation of mononuclear cells from human blood
(§3) 10 ml of human blood, stabilized with 1 ml of 3.8% sodium citrate solution, were diluted with 10 ml of PM16 (Serva, Heidelberg) and underlaid with 15 ml of Lymphoprep (Dr. Molter GmbH, Heidelberg). The samples were centrifuged, at room temperature for 40 minutes, at 400×g (1600 rpm, Minifuge 2, Heraeus, Osterode). The mononuclear cells are visible as a white ring at the Lymphoprep/plasma interface. This ring was carefully removed with a syringe, diluted with an equal volume of PM16, and centrifuged for 10 minutes at 400×g. The sediment was washed with approximately 10 ml of RPMI1640 (+300 mg/l L-glutamine, Gibco, Eggenstein) (Wallis, 1986). After the cells had been resuspended in approximately 1 ml of RPMI1640 (+300 mg/l L-glutamine+25 mM HEPES+100 μg/ml streptomycin+100 μg/ml penicillin), the cell density was determined using a Coulter Counter JT (Coulter Diagnostics) and adjusted to 5*10^6 /ml. Typically, the cells are composed of 90% lymphocytes and 10% monocytes.
(§4) 230 μl of mononuclear cells were incubated, at 37° C.; 5% CO2 for 20-22 hours (5 hours in the case of IL-6), with 10 μl of test substance (10 μM in DMSO/water, 1/10) and 10 μl of lipopolysaccharide (LPS; 500 μg dissolved in 1 ml of DMSO and diluted 1/10 with water prior to beginning the test; from Salmonella abortus equi, Sigma, Deisenhofen). The samples were cooled down to 0° C. in an ice bath and centrifuged in a Sigma centrifuge (2 minutes; 2000 rpm). Aliquots of the supernatant are measured with an ELISA (Biermann, Bad Nauheim). The abbreviation IL stands for interleukin and TNF for tumor necrosis factor alpha.
(§5) The values in the table show the concentration of the test substance which was employed in μM and, besides this, the residual activity measured in percent based on the control, which was set to be 100%. The interleukin is additionally indicated in test 4.

[2] = test system: adjuvant/arthritis model; assay: Test 6: antiarthritic effect in the adjuvant/arthritis model; type: in vivo, rat (Wistar-Lewis); conditions: Rattus norvegicus, po, 408 h, 50 mg/kg orally, daily for 17 days; rat; read-out: Test 6 Paw volume (% inhibition)
Experimental: Male rats of a Wistar-Lewis strain (Mollegaard/Denmark) were used as experimental animals. The body weight is between 160 and 200 g. Subplantar injection of 0.1 ml of Freund's adjuvant (=6 mg of Mycobacterium butyricum suspension, Difco Lab./Detroit, Mich. USA, per ml of heavy white paraffin oil, Merck, Darmstadt) into the root of the tail resulted, on the 10th to 14th day of the experiment, in immunopathological processes and chronic inflammations, particularly in the form of arthritic and periarthritic symptoms, at other sites in the body (secondary lesions). The animals were fed ad libitum with the standard feed Altromin-R, from Altrogge, Lage, and provided with tap water. The animals were given 60 mg of codein per kg as an analgesic from the 14th day to the end of the experiment. The test substances were administered orally as a CMC suspension, in an injection volume of 1 ml/100 g of body weight, on each day (in all for 17 days), beginning on the day of the adjuvant administration. The volumes of each of the hind paws, and the body weight, were measured on the first and on the 18th day of the experiment. Diminution in the increase of paw volume, as compared with the untreated control group, served as the criterion of activity, with the two hind paws being averaged.

[3] = test system: leukotriene B4 synthesis in white blood cells; assay: Test 3: LTB4 formation by white blood cells; type: cell-based; conditions: Homo sapiens, read-out: Test 3 residual activity (LTB4 formation), percent of control
Experimental: TEST 3. LTB4 formation by white blood cells
Isolation of white blood cells:
40 ml of human blood were mixed with 8 ml of 6% dextran solution (dextran, mw: 480,000 in PM16). After one hour at room temperature, the supernatant,which was composed of white blood cells, was removed, diluted with an equal volume of PM16, and centrifuged for 15 minutes at 300×g (1600 rpm). The sediment was next resuspended in approximately 5-6 ml of PM16 and, once the cell count had been determined in a Coulter Counter, adjusted to 10^7 cells/ml.
The test mixture comprised 0.24 ml of cell suspension, 0.03 ml of 20 mM CaCl2 /5 mM MgCl2 and 5 μl of test substance. Following 15 minutes of preincubation at 37° C., the reaction was started with 0.03 ml of A23187/glutathione (100 μg of A23187/ml; 15.4 μg of glutathione/ml). The incubation was terminated after 5 minutes at 37° C. by immediate cooling of the samples down to 0° C. After centrifuging for 2 minutes in an Eppendorff Centrifuge (0° C.), the supernatant was removed and examined chromatographically.
High pressure liquid chromatography (HPLC): the HPLC equipment comprises a Kratos pump (Spectro-flow 400), a cooled automatic BT 7041 sample injector (Biotronik) having a 75 μl sample loop, a Nucleosil C18 column (100*3 mm, 5 μm particles of Chrompack), a UV detector (Kratos) Spectroflow 757 (wavelength: 280 nm, measurement range: 0.1 AUFS, time constant: 0.5 s) and a Spectra Physics integrator (SP 4270). The eluent (725 ml of methanol, 275 ml of water and 0.1 ml of acetic acid) was supplied at a flow rate of 0.7 ml/minute and at a pressure of about 100 bar.
When doing this, the measurement range which has been set can be examined and altered if necessary. It is also vital to measure the test substances at the particular test concentration (e.g.: 10^-5 M) in PM16 before the cell incubation, since the test substances might conceal the LTB4 peak. If this is the case, a lower concentration must be selected.
as §5

[4] = test system: IL-1β release from mononuclear cells; assay: Test 4: cytokine release from LPS-stimulated mononuclear cells, IL-1β; type: cell-based; conditions: Homo sapiens, read-out: Test 4 residual activity (IL-1β release), percent of control
Experimental: as §1, §2, §3, §4, §5

[5] = test system: IL-1α release from mononuclear cells; assay: Test 4: cytokine release from LPS-stimulated mononuclear cells, IL-1α; type: cell-based; conditions: Homo sapiens, read-out: Test 4 residual activity (IL-1α release), percent of control
Experimental: as §1, §2, §3
as §4, with “([…])” for “(10 μM in DMSO/water, 1/10)”
as §5

[6] = test system: cyclooxygenase-dependent thrombocyte aggregation; assay: Test 5: Cyclooxygenase-dependent thrombocyte aggregation; type: cell-based, human; conditions: Homo sapiens, arachidonic acid as inducer, read-out: Test 5 residual activity (cyclooxygenase-dependent thrombocyte aggregation), percent of control
Method in brief: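 Citrated human platelet-rich plasma was preincubated 10 min at 37 °C with test substance diluted 1:30 in 50 mM Tris-HCl pH 8.0, 90 mM NaCl. Aggregation was triggered with arachidonic acid (5 mg/ml, 20 μl) under 800 rpm stirring in an aggregometer. Values are tested concentration (μM) and residual activity as % of control.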

[7] = test system: PAF-induced asthma attack; assay: Test 7: antiasthmatic effect, PAF-induced asthma attack; type: in vivo; conditions: Cavia porcellus; i.d., 15 minutes before PAF; guinea pig
Experimental: Test 7: Testing for antiasthmatic effect
Anesthetized guinea pigs, which were cannulated in the jugular vein to allow injection of the PAF, were used for testing for antiasthmatic effect. The test preparations were also administered intravenously (i.v.), 5 min before PAF administration, into the blood stream through the same venous cannula, or else administered intraduodenally (i.d.), 15 minutes before the PAF, through an opening in the duodenum which had been installed and cannulated surgically. The bronchial width was recorded in an overflow pneumonogram before and after administering the preparation. Evaluation: ED50 in mg/kg i.d. as compared with the PAF-induced asthma attack.

[8] = test system: tumor cell line 20-10-5S (hybridoma cell line); assay: Test 8: Inhibition of tumor cell proliferation; type: cell-based; conditions: 48 h + 16 h tritiated thymidine incorporation; 20-10-5S cells
[9] = test system: polymorphonuclear leucocytes (PMNL); assay: Test 1: Release of proteolytic activity from human PMNL; type: cell-based; conditions: Homo sapiens, PMNL, read-out: Test 1 residual activity (release of proteolytic activity), percent of control
Method in brief: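 Human peripheral-blood PMNL (5·10^6 cells/ml in PBS with 7.5 mM glucose) preincubated 20 min at 37° C. with compound, then primed with cytochalasin B (5 μg/ml) and TNF (30 ng/ml), and stimulated with fMLP (10 nmol/l) for 60 min. Released protease in supernatant read with methoxysuccinyl-nitroanilide substrate at 405 nm over 0-60 min, pH 7.5.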

[10] = test system: IL-1 release from mononuclear cells; assay: Test 4: cytokine release from LPS-stimulated mononuclear cells, IL-1; type: cell-based; conditions: Homo sapiens
Experimental: as §1, §2, §3, §4, §5

[11] = IL-1, read-out: Test 4 residual activity (IL-1 release), percent of control

Structure (SMILES)	activity at 10 µM [1] [%]	activity at 10 µM [3] [%]	IC50 [8] [µM]	activity at 1 µM [5] [%]	activity at 100 µM [6] [%]	activity at 100 µM [9] [%]	further results
CC(C)(C)c1cc(-c2cc(CCO)on2)cc(C(C)(C)C)c1O [Example 25]	82	29	< 5				inhibition in vivo at 50 mg/kg [2]: 44%; activity at 1 µM [3]: 85%; activity at 10 µM ([4]; 10 μM): 93%; activity at 10 µM [5]: 62%; activity at 10 µM [6]: 86%; ED50 [7]: 3 to 10 mg/kg
CC(C)(OCc1cc(-c2cc(C(C)(C)C)c(O)c(C(C)(C)C)c2)no1)C(=O)Nc1nnn[nH]1 [Example 38, 2-(3-(4-Hydroxy-3,5-di-tert-butylphenyl)isoxazol-5-ylmethoxy)-N-(1H-tetrazol-5-yl)isobutyramide]				89	90		activity at 1 µM [4]: 85%
CC(C)(C)c1cc(C2CC(c3nccs3)=NO2)cc(C(C)(C)C)c1O (stereo not shown) [Example 61, 3-(2-Thiazolyl)-5-(4-hydroxy-3,5-di-tert-butylphenyl)-2-isoxazoline]	68	3		94	94	80	
CC(C)(C)c1cc(-c2cc(CCC(=O)Nc3nnn[nH]3)on2)cc(C(C)(C)C)c1O [Example 46, 3-(3-(4-Hydroxy-3,5-di-tert-butylphenyl)isoxazol-5-yl)-N-(1H-tetrazol-5-yl)propionamide]	79			77	90		activity at 1 µM [4]: 85%
CC(C)(C)c1cc(-c2cc(CO)on2)cc(C(C)(C)C)c1O [Example 24]			< 5				inhibition in vivo at 50 mg/kg [2]: 43%; activity at 10 µM [10, 11]: 86%; activity at 10 µM [6]: 94%
CC(C)(C)c1cc(C2CC(CCC(=O)Nc3nnn[nH]3)=NO2)cc(C(C)(C)C)c1O (stereo not shown) [Example 64, 5-(4-Hydroxy-3,5-di-tert-butyl)phenyl-2-isoxazoline-3-propionic acid-N-(1H-tetrazol-5-yl)amide]					97	72	activity at 10 µM ([10]; IL-1 (second entry), read-out: Test 4 residual activity (IL-1 release, second IL-1 entry of Ex. 64), percent of control): 82%; activity at 1 µM ([10]; IL-1, 1 μM, read-out: Test 4 residual activity (IL-1 release), percent of control): 85%; activity at 10 µM [10, 11]: 68%; activity at 10 µM [9]: 96%
CC(C)(C)c1cc(C2=NOC(c3ccncc3)C2)cc(C(C)(C)C)c1O (stereo not shown) [Example 10]	78	20			98		activity at 1 µM [3]: 89%
CC(C)(C)c1cc(-c2cc(/C=C/C(=O)O)on2)cc(C(C)(C)C)c1O [Example 47, 3-(4-Hydroxy-3,5-di-tert-butylphenyl)isoxazol-5-ylacrylic acid]	64		5 to 10	89		17	activity at 10 µM [5]: 72%; activity at 1 µM ([9]; 1 μM): 85%; activity at 10 µM [9]: 38%; ED50 [7]: 10 to 50 mg/kg
